From PMC12670405, “Second-Generation AURKA-Targeting PROTACs: Structural Optimization toward in Vivo Degradation in Neuroblastoma” (Journal of Medicinal Chemistry, 2025)
Read-outs that look alike come from different tables or passages of the source.

Legend:
[1] = In vivo pharmacokinetics study; set-up: species or system ICR (CD-1) mice; settings: for clearance / bioavailability: male, ICR (CD-1), mouse, plasma; for clearance: iv, 15 mg/kg, read-out: CLIV, mouse (in vivo systemic clearance); for clearance / CLIV, mouse (in vivo systemic clearance): IV 15 mg/kg, noncompartmental analysis; for bioavailability: mice, PO 30 mg/kg vs IV 15 mg/kg
Protocol: Both the in vivo pharmacokinetics and in vivo pharmacodynamics studies were performed by Eurofins Pharmacology Discovery Services. All mice were provided by BioLasco Taiwan (under Charles River Laboratories Licensee). Animals were acclimated for 3 days prior to use and were confirmed to be in good health. All aspects of this work including housing, experimentation, and animal disposal were performed in general accordance with the “Guide for the Care and Use of Laboratory Animals: Eighth Edition” (National Academies Press, Washington, DC. 2011) in a AAALAC-accredited laboratory animal facility. In addition, the animal care and use protocol was reviewed and approved by the IACUC at Eurofins Pharmacology Discovery Services; IN020-08202020 and ON002-07142023.
Male ICR (CD-1) mice, weighing 30 ± 5 g, were given intravenous (IV), intraperitoneal (IP) or oral gavage (PO) administrations of PROTACs at 15 mg/kg (IV and IP) or 30 mg/kg (PO). Dosing volumes used were 5 mL/kg (IV and IP) and 10 mL/kg (PO). The test compounds were dissolved in 5% DMSO/5% Solutol HS15/90% PBS. Serial blood samples were collected at 0.05, 0.167, 0.5, 1, 2, 4, 8, 12 h postadministration (an additional 24h sample was collected for IV-administered mice). Blood samples were collected from three animals at each time point via facial vein (±50 μL) for the first time points and cardiac puncture (±300 μL) for the final time point and stored in tubes coated with lithium heparin. Within 1h of collection, samples were mixed gently and centrifuged at 2500 g for 15 min at 4 °C. Plasma samples were then harvested and kept frozen at −70 °C until further processing. Samples were processed using acetonitrile precipitation and analyzed by LC–MS/MS. Mean plasma concentrations were plotted as a function of time and the fundamental PK parameters were obtained from a noncompartmental analysis (NCA) using WinNonlin. Free drug levels (C p,u) for SK4454 and SK5527 were calculated by factoring in their plasma protein binding (f u) values using the following formula: C p,u = C p * f u.

[2] = Metabolic stability in mouse hepatocytes (MH); assay type: in vitro ADME, CD-1 mouse; settings: CD-1
Protocol: (§1) Plasma and metabolic stability tests were performed by Eurofins Discovery. For the plasma stability assay, test compounds were incubated in CD-1 mouse plasma for 0, 0.5, 1, 1.5, and 2 h at 37 °C at a concentration of 1 μM. For the metabolic stability assay, test compounds were incubated at 37 °C in either (1) CD-1 mouse liver microsomes (MLM) (0.1 mg/mL) at a concentration of 0.1 μM for 0, 15, 30, 45, and 60 min or (2) CD-1 mouse hepatocytes (MH) (0.7 million viable cells/mL) at a concentration of 1 μM for 0, 0.5, 1, 1.5, and 2 h. At the respective time points, acetonitrile was added to the incubation mixture followed by centrifugation. Samples were analyzed by HPLC-MS/MS and peak areas were recorded for each analyte. Compound stability, expressed as the percentage of parent compound remaining, was calculated by comparing the peak area of the compound at each time point relative to that of the 0h time point. Percentage compound remaining is plotted as a function of time as a logarithmic curve. Half-life (t 1/2) is estimated from the slope of the initial linear range of the curve, assuming first-order kinetics. […] Both plasma and metabolic assay experiments were performed once with 2 replicate samples each.

NGP = test: IncuCyte live-cell imaging, antiproliferative effect; assay type: cell-based; settings: Homo sapiens, 72 h
Outline: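 Cells seeded in 384-well plates (neuroblastoma 1200–5000, HEK293T 600 cells/well), adhered overnight, then compound-treated in duplicate or triplicate; confluency tracked by IncuCyte live-cell imaging. Normalized confluence averaged from 3 experiments; absolute GI50 interpolated from four-parameter variable-slope curves.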

[3] = Metabolic stability in mouse liver microsomes (MLM); assay type: in vitro ADME, CD-1 mouse; settings: CD-1
Protocol: as §1

Plasma stability assay = assay type: in vitro ADME, CD-1 mouse; settings: for half-life at 1 μM: CD-1 mouse plasma, 37 °C, read-out: plasma t1/2
Protocol: as §1

O=C1CCC(Nc2ccc(N3CCN(C4CN(C(=O)[C@]5(Cc6cccc(Nc7nccs7)n6)CC[C@@H](Oc6cccc(Cl)c6F)CC5)C4)CC3)c(F)c2)C(=O)N1 (stereo partly shown) [PROTAC 18] gave a clearance [1] of 1.38 L/h/kg, a hepatocyte CLint at 1 μM [2] of under 4.1 µL/min/1e6 cells and a GI50 (NGP; read-out: GI50 72h, 72h) of 0.017 µM. The GI50 (NGP; read-out: pGI50 (converted)) was 0.017 µM, the microsomal CLint at 0.1 μM [3] was 369 µL/min/mg and the half-life at 1 μM (Plasma stability assay) was over 2 h. For the same molecule, the “plasma t1/2” value (Plasma stability assay) was over 2 h.

In the case of O=C1CCN(c2ccc(N3CCN(CC4CN(C(=O)[C@]5(Cc6cccc(Nc7nccs7)n6)CC[C@@H](Oc6cccc(Cl)c6F)CC5)C4)CC3)nc2)C(=O)N1 [PROTAC 23], the clearance [1] is reported as 2.1 L/h/kg, the hepatocyte CLint at 1 μM [2] is reported as under 4.1 µL/min/1e6 cells and the GI50 (NGP; read-out: GI50 72h, 72h) is reported as 0.024 µM. It also gave a GI50 (NGP; read-out: pGI50 (converted)) of 0.0234 µM, a microsomal CLint at 0.1 μM [3] of 666 µL/min/mg and a half-life at 1 μM (Plasma stability assay) of over 2 h. For the same molecule, the “plasma t1/2” value (Plasma stability assay) was over 2 h.

Molecule O=C1CCN(c2ccc(N3CCN(CC4CCN(C(=O)[C@]5(Cc6cccc(Nc7nccs7)n6)CC[C@@H](Oc6cccc(Cl)c6F)CC5)CC4)CC3)nc2)C(=O)N1 [PROTAC 24] has a clearance [1] of 1.32 L/h/kg, a hepatocyte CLint at 1 μM [2] of under 4.1 µL/min/1e6 cells and a GI50 (NGP; read-out: GI50 72h, 72h) of 0.028 µM. For the same molecule, the GI50 (NGP; read-out: pGI50 (converted)) was 0.0275 µM, the microsomal CLint at 0.1 μM [3] was 565 µL/min/mg and the half-life at 1 μM (Plasma stability assay) was over 2 h. The “plasma t1/2” value (Plasma stability assay) was over 2 h.

Cc1cc(Nc2ccc(F)c(CC3(C(=O)N4CC(N5CCN(c6ccc(NC7CCC(=O)NC7=O)cc6F)CC5)C4)CCN(Cc4cccc(Cl)c4F)CC3)n2)n[nH]1 (stereo not shown) [PROTAC 29] showed a clearance [1] of 2.28 L/h/kg, a hepatocyte CLint at 1 μM [2] of under 4.1 µL/min/1e6 cells and a GI50 (NGP; read-out: GI50 72h, 72h) of 0.036 µM. For the same molecule, the GI50 (NGP; read-out: pGI50 (converted)) was 0.0363 µM, the microsomal CLint at 0.1 μM [3] was 438 µL/min/mg and the half-life at 1 μM (Plasma stability assay) was over 2 h. For the same molecule, the “plasma t1/2” value (Plasma stability assay) was over 2 h.

With O=C1CCC(N2C(=O)c3cccc(OCCOCCOCCOCCNC(=O)[C@]4(Cc5cccc(Nc6nccs6)n5)CC[C@@H](Oc5cccc(Cl)c5F)CC4)c3C2=O)C(=O)N1 (stereo partly shown) [SK2188, reference compound] the clearance [1] was 6.84 L/h/kg, the GI50 (NGP; read-out: Cell GI50 72h, NGP (Figure 4B)) was 0.019 µM and the GI50 (NGP; read-out: GI50 72h, 72h) was 0.04 µM. The GI50 (NGP; read-out: pGI50 (converted)) was 0.0398 µM, the microsomal CLint at 0.1 μM [3] was 1390 µL/min/mg and the half-life at 1 μM (Plasma stability assay) was 1.12 h.

In the case of Cc1cc(Nc2ccc(F)c(CC3(C(=O)N4CCC(CN5CCN(c6ccc(N7CCC(=O)NC7=O)cn6)CC5)CC4)CCN(Cc4cccc(Cl)c4F)CC3)n2)n[nH]1 [SK4454], the “CLIV, mouse (in vivo systemic clearance)” value ([1]; listed as PROTAC 32, 15 mg/kg) is reported as 1.09 L/h/kg, the clearance [1] is reported as 1.08 L/h/kg and the bioavailability [1] is reported as 7%. For the same molecule, the hepatocyte CLint at 1 μM [2] was under 4.1 µL/min/1e6 cells, the GI50 (NGP; read-out: GI50 72h, 72h) was 0.035 µM and the GI50 (NGP; read-out: pGI50 (converted)) was 0.0347 µM. The microsomal CLint at 0.1 μM [3] was 437 µL/min/mg, the half-life at 1 μM (Plasma stability assay) was over 2 h and the “plasma t1/2” value (Plasma stability assay) was over 2 h.

In the case of Cc1cc(Nc2ccc(F)c(CC3(C(=O)N4CCC(F)(CN5CCN(c6ccc(N7CCC(=O)NC7=O)cn6)CC5)CC4)CCN(Cc4cccc(Cl)c4F)CC3)n2)n[nH]1 [SK5527], the “CLIV, mouse (in vivo systemic clearance)” value ([1]; listed as PROTAC 33, 15 mg/kg) is reported as 0.732 L/h/kg, the clearance [1] is reported as 0.72 L/h/kg and the bioavailability [1] is reported as 11%. It also gave a hepatocyte CLint at 1 μM [2] of 4.4 µL/min/1e6 cells, a GI50 (NGP; read-out: GI50 72h, 72h) of 0.042 µM and a GI50 (NGP; read-out: pGI50 (converted)) of 0.0417 µM. The microsomal CLint at 0.1 μM [3] was 582 µL/min/mg, the half-life at 1 μM (Plasma stability assay) was over 2 h and the “plasma t1/2” value (Plasma stability assay) was over 2 h.
